Experiments:
[1] = tested on: WT and Mpo^-/- mice; experiment: Electrophysiological investigation (EPI), induction of AF by right atrial stimulation, surface ECG; type: in vivo
Protocol: (§1) Angiotensin II and myeloperoxidase treatment of mice. We treated male C57BL/6J (WT) and MPOtmllus mice (Mpo^-/^-) on a C57BL/6 background, aged 12-15 weeks, via ALZET osmotic pumps with angiotensin II (AngII, 1.5 ng/g body weight/minute) or saline (vehicle) for 14 days prior to electrophysiological investigation (EPI). We treated another cohort of WT and Mpo^-/- mice via ALZET osmotic pumps with a connected jugular catheter with recombinant MPO (5.0, 12.5 and 50 pg/g body weight/minute, which we calculated to generate physiological plasma levels of MPO ranging between 100 and 1100 pM, respectively) or recombinant human serum albumin (HSA) for 7 days in combination with either AngII or saline prior to EPI. Animal experiments, conformed with the Guide for the Care and Use of Laboratory Animals published by the US National Institutes of Health and were approved by the review board of Hamburg and Bonn.
Electrophysiological investigation (EPI). We examined mice electrophysiologically using a single catheter technique ^19,32. We analyzed standard ECG-parameters obtained by a 6-lead-surface-ECG. EPI included transvenous atrial and ventricular recording and stimulation^21. For induction of AF, we performed atrial and ventricular burst and programmed atrial stimulations. We defined atrial fibrillation as rapid and fragmented atrial electrograms with irregular AV-nodal conduction for >1 s. AF-episodes persisting >1 min were classified as sustained AF. Number, duration, and probability of inducible AF-episodes were analyzed.

[2] = tested on: Langendorff perfused hearts from WT and Mpo^-/- mice; experiment: Epicardial mapping of Langendorff-perfused hearts; conditions: atria from AngII treated Mpo^-/- mice, in contrast to AngII challenged WT mice
Protocol: as §1
Epicardial mapping of Langendorff-perfused hearts. We determined spontaneous and stimulated myocardial conduction velocities and characteristics of Langendorff perfused hearts by epicardial activation mapping using a 128-electrodearray^21.

[3] = tested on: WT and Mpo^-/- mice; experiment: Radiotelemetric blood pressure measurements; type: in vivo; conditions: AngII, Mpo^-/- mice compared with WT mice
Protocol: as §1
Radiotelemetric blood pressure measurements. We performed blood pressure measurements as previously^36. In brief, we inserted the tip of the telemetry device (TA11 PA-C10; Data Sciences International, St. Paul, USA) into the carotid lumen. After 10 days, data acquisition started for 1 minute every 5 minutes for 3 days. […] We recorded blood pressure and heart rate for the following week in MPO treated mice and two weeks in AngII treated animals, respectively.

[4] = tested on: WT mice; experiment: MPO content in mouse plasma and atrial tissue (ELISA) after angiotensin II infusion; type: in vivo; conditions: 2 week subcutaneous infusion of AngII
Protocol: as §1
Assessment of MPO content in human and mouse plasma and atrial tissue. We determined MPO levels by ELISA (human: Prognostix, Cleveland, USA; mouse: hycult biotechnology, The Netherlands).

angiotensin II (DRVYIHPF; Angiotensin-2; UniProt P01019 25-32, looked up) [AngII]
inducibility of AF ([1]; Mpo^-/- mice, AngII for 14 days): did not affect the inducibility of AF | susceptibility for AF (number and duration of AF-episodes, probability of AF induction) ([1]; WT mice, AngII for 14 days, right atrial electrophysiological stimulation): higher susceptibility for AF | P wave duration ([1]; WT mice, AngII treatment, in vivo surface ECG, p<0.001): significant prolongation | conduction velocity [2]: no retardation in conduction velocity | blood pressure elevating effect [3]: blunted | myocardial deposition of MPO [4]: elevated | circulating MPO plasma levels ([4]; 1.5 ng/g body weight/minute): substantially increased

Source: patent publication EP2366431A1, “Myeloperoxidase as a target in atrial fibrillation” (Universitätsklinikum Hamburg-Eppendorf, priority 2010, dated 2011)
